Results as given in patent US7314867B2, “Pharmaceutical composition comprising a retro-iverso isomer peptide” (priority 2002, dated 2008).
“Also recorded” adds a separate entry of the source.

Each substance was assayed on serum triglyceride levels in male ICR mice (assay: Oral administration of peptides to determine inhibition of serum triglyceride level elevation after olive oil feeding). Settings: male ICR mice fasted overnight; olive oil 250 mg by gastric intubation; peptide 1.0 mg/mouse orally one hour after lipid; blood collected after two hours.
Type: in vivo
Protocol: Olive oil (250 mg) was administered via gastric intubation to male ICR mice (6-week old, body weight: 20 g), which were fasted overnight. The peptides were dissolved in 0.1 ml saline solution and administered orally one hour after lipid administration. For the control group, 0.1 ml of saline solution was administered per mouse. After two hours, blood was collected from the orbital vein under ether anesthesia and the serum was separated by centrifugation (3000 rpm, 30 min, 1° C.). Serum triglyceride levels were assayed using commercially available methods (e.g. INFINITY (Registered Trade Mark) triglycerides reagent; Sigma Chemical Co.). The results were compared with L-Val-L-Val-L-Tyr-L-Pro (Reference Peptide 1), L-Val-L-Tyr-L-Pro (Reference Peptide 2), and L-Val-L-Thr-L-Leu (Reference Peptide 3) and shown in Table 1.

Point of comparison: “D-Pro D-Tyr D-Val C-NH2 [Retro Inverso Polypeptide 2]”, “Serum Triglyceride” value 231.8 ± 27.6 mg/100 ml. Against it:
- D-Leu D-Thr D-Val C-NH2 [Retro Inverso Polypeptide 3] — higher, 294.6 ± 33.8 mg/100 ml
- D-Pro D-Tyr D-Val D-Val C-NH2 [Retro Inverso Polypeptide 1] — higher, 313.7 ± 45.9 mg/100 ml
- L-Val-L-Thr-L-Leu [Ref. Peptide 3, reference compound] — higher, 352.7 ± 35.6 mg/100 ml
- L-Val-L-Tyr-L-Pro [Ref. Peptide 2, reference compound] — higher, 407.7 ± 42.0 mg/100 ml
- L-Val-L-Val-L-Tyr-L-Pro [Ref. Peptide 1, reference compound] — within error, 244.7 ± 25.5 mg/100 ml

Same assay, conditions: male ICR mice; olive oil 250 mg; peptide 1.0 mg/mouse orally; versus Olive Oil Only

Point of comparison: “D-Pro D-Tyr D-Val D-Val C-NH2 [Retro Inverso Polypeptide 1]”, “% Decrease (serum triglyceride)” value 22.0%. Against it:
- D-Leu D-Thr D-Val C-NH2 [Retro Inverso Polypeptide 3] — higher, 28.7%
- D-Pro D-Tyr D-Val C-NH2 [Retro Inverso Polypeptide 2] — higher, 50.8%
- L-Val-L-Thr-L-Leu [Ref. Peptide 3, reference compound] — lower, 8.3%
- L-Val-L-Tyr-L-Pro [Ref. Peptide 2, reference compound] — lower, 0%
- L-Val-L-Val-L-Tyr-L-Pro [Ref. Peptide 1, reference compound] — higher, 46.3%

Same assay, conditions: male ICR mice; olive oil load; peptide 1.0 mg/mouse orally; comparison in words

With “D-Leu D-Thr D-Val C-NH2 [Retro Inverso Polypeptide 3]” the “Activity in lowering elevated serum triglyceride levels compared with the corresponding natural reference peptide” value was “higher activities in lowering elevated serum triglyceride levels than Reference 2 and 3, respectively”.
“D-Pro D-Tyr D-Val C-NH2 [Retro Inverso Polypeptide 2]” was tested, and the “Activity in lowering elevated serum triglyceride levels compared with the corresponding natural reference peptide” value was “substantially exceed the activity of the corresponding natural oligopeptide”.
In the case of “D-Pro D-Tyr D-Val D-Val C-NH2 [Retro Inverso Polypeptide 1]”, the “Activity in lowering elevated serum triglyceride levels compared with the corresponding natural reference peptide” value is reported as “higher activities in lowering elevated serum triglyceride levels than Reference 2 and 3, respectively; also recorded: about half of Reference Peptide 1”.

Same assay, conditions: male ICR mice; olive oil load; peptide 1.0 mg/mouse orally; comparison in words; listed as D-Leu D-Thr D-Val

“D-Leu D-Thr D-Val C-NH2 [Retro Inverso Polypeptide 3]” was tested, and the “Activity in lowering elevated serum triglyceride levels compared with the corresponding natural reference peptide” value was “substantially exceed the activity of the corresponding natural oligopeptide”.
